Experimental data taken from patent publication US7939467B2, “4-(3-aminobenzoyl)-1-ethylpyrazoles and their use as herbicides” (Bayer CropScience AG, priority 2007, dated 2011).

Legend:
Assay in all cases: Herbicidal action against harmful plants, greenhouse pot test (comparative tables)
Type in all cases: in vivo
Matricaria inodora = conditions: 320 g a.i./ha; scored 3-4 weeks after treatment; comparative table 1
Text: (§1) Seeds or rhizome pieces of mono- and dicotyledonous harmful plants are placed in sandy loam in pots of a diameter of 9 to 13 cm and covered with soil. The herbicides, formulated as emulsifiable concentrates or dusts, are applied to the surface of the covering soil in the form of aqueous dispersions or suspensions or emulsions at an application rate of 300 to 800 l of water/ha (converted), at various dosages. For further cultivation of the plants, the pots are then kept in a greenhouse under optimum conditions. The visual scoring of the damage to the harmful plants is carried out 3-4 weeks after the treatment. As shown by the results of these comparative tables, the selected compounds according to the invention have better herbicidal activity against a broad spectrum of economically important mono- and dicotyledonous harmful plants than the compounds disclosed in the prior art.
(§2) Seeds of mono- and dicotyledonous harmful plants are placed in sandy loam in cardboard pots, covered with soil and grown in the greenhouse under good growth conditions. Two to three weeks after sowing, the test plants are treated at the three-leaf stage. The compounds according to the invention, which are formulated as wettable powders or as emulsion concentrates, are sprayed at an application rate of 600 to 800 l of water/ha (converted) in a dosage stated in tables 1 to 5 onto the surface of the green plant parts. After the test plants have been left to stand in the greenhouse for 3 to 4 weeks under optimum growth conditions, the action of the compounds according to the invention is scored in comparison to compounds disclosed in the prior art. As shown by the results of these comparison tables, the selected compounds according to the invention have better herbicidal activity against a broad spectrum of economically important mono- and dicotyledonous harmful plants than the compounds disclosed in the prior art.

Polygonum convolvulus = conditions: scored 3-4 weeks after treatment
Text: as §1, §2

Viola tricolor = conditions: 320 g a.i./ha; scored 3-4 weeks after treatment; comparative table 1
Text: as §1, §2

Echinochloa crus galli = conditions: 80 g a.i./ha; scored 3-4 weeks after treatment; comparative table 2
Text: as §1, §2

Setaria viridis = conditions: scored 3-4 weeks after treatment
Text: as §1, §2

Veronica persica = conditions: scored 3-4 weeks after treatment
Text: as §1, §2

[1] = 320 g a.i./ha, comparative table 1
[2] = 80 g a.i./ha, comparative table 2
[3] = 320 g a.i./ha, comparative table 3

SMILES | Activity against harmful plants MATIN (Matricaria inodora) | Activity against harmful plants POLCO (Polygonum convolvulus; [1]) | Activity against harmful plants VIOTR (Viola tricolor) | Activity against harmful plants ECHCG (Echinochloa crus galli) | Activity against harmful plants POLCO (Polygonum convolvulus; [2]) | Activity against harmful plants SETVI (Setaria viridis; [2]) | Activity against harmful plants VERPE (Veronica persica; [2]) | Activity against harmful plants SETVI (Setaria viridis; [3]) | Activity against harmful plants VERPE (Veronica persica; [3])
CCOCCNc1c(S(C)(=O)=O)ccc(C(=O)c2cnn(CC)c2O)c1C | 90% | 70% | 90% |  |  |  |  |  | 
CCOCCNc1c(S(C)(=O)=O)ccc(C(=O)c2cnn(CC)c2O)c1Cl | 0% | 0% | 70% |  |  |  |  |  | 
CCn1ncc(C(=O)c2ccc(S(C)(=O)=O)c(N(C)CCCOC)c2C)c1O |  |  |  | 90% | 80% | 90% | 90% |  | 
CCn1ncc(C(=O)c2ccc(S(C)(=O)=O)c(N(C)CCCOC)c2Cl)c1O |  |  |  | 40% | 30% | 0% | 60% |  | 
CCn1ncc(C(=O)c2ccc(S(C)(=O)=O)c(NCC3CC3)c2C)c1O |  |  |  |  |  |  |  | 100% | 90%
CCn1ncc(C(=O)c2ccc(S(C)(=O)=O)c(NCC3CC3)c2Cl)c1O |  |  |  |  |  |  |  | 80% | 70%
